Key:
[1] = target: T1, 5-hydroxytryptamine receptor 1A (Rattus norvegicus, UniProt P19327); assay: Inhibitory activity against [3H]DPAT binding to 5-HT1A receptor in rat hippocampus; assay type: tissue-based
T1 sequence (P19327 whole entry): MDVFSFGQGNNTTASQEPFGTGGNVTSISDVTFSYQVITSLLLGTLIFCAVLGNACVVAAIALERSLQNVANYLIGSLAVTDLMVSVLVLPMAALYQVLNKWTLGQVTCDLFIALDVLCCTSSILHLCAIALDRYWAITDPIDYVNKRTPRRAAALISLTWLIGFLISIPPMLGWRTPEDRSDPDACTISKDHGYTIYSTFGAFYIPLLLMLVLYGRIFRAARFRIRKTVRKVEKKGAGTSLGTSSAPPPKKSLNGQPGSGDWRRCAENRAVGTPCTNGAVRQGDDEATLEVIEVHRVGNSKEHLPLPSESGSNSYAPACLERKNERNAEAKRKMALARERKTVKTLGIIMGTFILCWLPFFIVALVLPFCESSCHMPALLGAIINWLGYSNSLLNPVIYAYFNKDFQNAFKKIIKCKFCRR

[2] = target: 5-hydroxytryptamine receptor 1B (Rattus norvegicus, UniProt P28564); assay: Inhibitory activity against [3H]5-HT binding to 5-HT1B receptor in rat striatum; assay type: tissue-based
Sequence of 5-hydroxytryptamine receptor 1B (P28564 whole entry): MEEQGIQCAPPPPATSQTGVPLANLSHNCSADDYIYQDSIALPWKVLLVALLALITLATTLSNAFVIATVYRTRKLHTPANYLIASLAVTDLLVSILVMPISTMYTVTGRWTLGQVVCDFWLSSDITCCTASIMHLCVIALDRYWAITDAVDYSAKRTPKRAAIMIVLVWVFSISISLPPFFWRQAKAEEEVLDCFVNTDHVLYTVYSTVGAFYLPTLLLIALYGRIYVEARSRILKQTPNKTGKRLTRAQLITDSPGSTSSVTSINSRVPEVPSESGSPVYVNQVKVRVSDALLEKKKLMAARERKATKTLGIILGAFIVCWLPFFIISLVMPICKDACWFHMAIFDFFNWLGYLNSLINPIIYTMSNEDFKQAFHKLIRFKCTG

[3] = target: Serotonin 2 (5-HT2) receptor (Rattus norvegicus, UniProt P30994+P08909+P14842); assay: Inhibitory activity against [3H]spiroperidol binding to 5-HT2 receptor in rat cortex
Acetylcholinesterase = target: T2, Acetylcholinesterase (Rattus norvegicus, UniProt P37136); assay: Inhibitory activity against Acetylcholinesterase in rat striatum; assay type: tissue-based
T2 sequence (P37136 whole entry): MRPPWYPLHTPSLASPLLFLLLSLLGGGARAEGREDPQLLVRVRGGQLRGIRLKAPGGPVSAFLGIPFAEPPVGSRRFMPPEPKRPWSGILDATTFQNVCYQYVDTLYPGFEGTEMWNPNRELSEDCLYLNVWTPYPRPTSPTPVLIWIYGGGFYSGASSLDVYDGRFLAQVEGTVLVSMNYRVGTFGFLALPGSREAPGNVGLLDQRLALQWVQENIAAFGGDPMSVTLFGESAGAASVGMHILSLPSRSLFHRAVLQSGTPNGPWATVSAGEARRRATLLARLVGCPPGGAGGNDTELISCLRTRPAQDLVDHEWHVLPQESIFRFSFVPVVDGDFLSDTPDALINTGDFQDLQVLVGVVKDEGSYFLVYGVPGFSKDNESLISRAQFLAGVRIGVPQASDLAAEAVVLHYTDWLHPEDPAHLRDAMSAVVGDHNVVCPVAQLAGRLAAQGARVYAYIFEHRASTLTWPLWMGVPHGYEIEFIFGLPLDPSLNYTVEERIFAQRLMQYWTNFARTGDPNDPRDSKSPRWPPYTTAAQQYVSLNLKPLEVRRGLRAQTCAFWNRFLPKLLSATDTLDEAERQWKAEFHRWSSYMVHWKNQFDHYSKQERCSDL

D(1A) dopamine receptor = D(1A) dopamine receptor (Rattus norvegicus, UniProt P18901); assay: Inhibitory activity against [3H]SCH-23390 binding to Dopamine receptor D1 in rat striatum; assay type: tissue-based
Sequence of D(1A) dopamine receptor (P18901 whole entry): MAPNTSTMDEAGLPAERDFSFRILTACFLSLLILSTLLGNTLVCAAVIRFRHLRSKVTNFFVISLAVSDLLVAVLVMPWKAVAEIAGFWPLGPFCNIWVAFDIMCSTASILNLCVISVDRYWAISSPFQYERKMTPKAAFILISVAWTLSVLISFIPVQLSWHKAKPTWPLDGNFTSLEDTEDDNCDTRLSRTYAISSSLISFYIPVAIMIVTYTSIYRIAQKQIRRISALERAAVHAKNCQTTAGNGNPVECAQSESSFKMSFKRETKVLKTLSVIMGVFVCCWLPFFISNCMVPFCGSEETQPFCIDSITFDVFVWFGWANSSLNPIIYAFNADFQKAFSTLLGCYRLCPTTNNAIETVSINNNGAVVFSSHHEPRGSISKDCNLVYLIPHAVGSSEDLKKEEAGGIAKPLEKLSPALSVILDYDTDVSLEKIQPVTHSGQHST

Mus musculus [4] = species on record: Mus musculus; assay: Antagonistic activity against Scopolamine induced behavioral deficits in mice; 5/6; assay type: functional
[5] = target: Muscarinic acetylcholine receptor; assay: Inhibitory activity against [3H]oxotremorine-M binding to muscarinic receptors in rat forebrain membrane; assay type: cell membranes
[6] = target: T3, Muscarinic acetylcholine receptor M2 (Rattus norvegicus, UniProt P10980); assay: Inhibitory activity against [3H]N-methyl-scopolamine binding to Muscarinic acetylcholine receptor M2 in rat cerebellum; assay type: tissue-based
T3 sequence (P10980 whole entry): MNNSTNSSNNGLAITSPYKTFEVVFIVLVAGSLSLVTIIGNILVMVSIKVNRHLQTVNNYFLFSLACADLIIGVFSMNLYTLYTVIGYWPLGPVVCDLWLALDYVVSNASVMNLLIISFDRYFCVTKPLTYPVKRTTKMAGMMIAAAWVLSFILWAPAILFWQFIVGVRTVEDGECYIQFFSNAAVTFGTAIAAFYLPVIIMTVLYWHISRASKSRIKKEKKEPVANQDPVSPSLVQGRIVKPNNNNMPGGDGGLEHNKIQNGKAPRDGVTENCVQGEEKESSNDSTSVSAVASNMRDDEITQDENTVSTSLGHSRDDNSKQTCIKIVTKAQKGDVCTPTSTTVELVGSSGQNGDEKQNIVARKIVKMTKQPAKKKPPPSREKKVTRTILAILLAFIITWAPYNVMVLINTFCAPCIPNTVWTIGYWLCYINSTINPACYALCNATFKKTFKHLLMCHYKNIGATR

[7] = target: Neuronal acetylcholine receptor; assay: Inhibitory activity against [3H]-NMCC binding to nicotinic receptors in rat cortex
[8] = target: T4, Muscarinic acetylcholine receptor M1 (Rattus norvegicus, UniProt P08482); assay: Inhibitory activity against [3H]pirenzepine binding to muscarinic M1 receptor in rat cortex
T4 sequence (P08482 whole entry): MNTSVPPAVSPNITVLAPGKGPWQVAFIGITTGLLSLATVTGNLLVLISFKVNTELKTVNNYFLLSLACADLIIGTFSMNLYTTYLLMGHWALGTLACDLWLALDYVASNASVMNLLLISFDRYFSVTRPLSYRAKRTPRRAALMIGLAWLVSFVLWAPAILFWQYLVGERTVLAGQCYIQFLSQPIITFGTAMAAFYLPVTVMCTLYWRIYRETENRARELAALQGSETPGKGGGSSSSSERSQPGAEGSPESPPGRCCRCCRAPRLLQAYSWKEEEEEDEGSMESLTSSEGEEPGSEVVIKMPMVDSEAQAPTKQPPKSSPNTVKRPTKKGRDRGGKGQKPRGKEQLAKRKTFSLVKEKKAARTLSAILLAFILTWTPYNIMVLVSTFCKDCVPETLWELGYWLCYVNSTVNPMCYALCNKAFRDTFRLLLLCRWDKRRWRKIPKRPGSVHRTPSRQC

Mu-type opioid receptor = Mu-type opioid receptor (Rattus norvegicus, UniProt P33535); assay: Inhibitory activity against [3H]DHM binding to mu opioid receptor in rat whole brain
Sequence of Mu-type opioid receptor (P33535 whole entry): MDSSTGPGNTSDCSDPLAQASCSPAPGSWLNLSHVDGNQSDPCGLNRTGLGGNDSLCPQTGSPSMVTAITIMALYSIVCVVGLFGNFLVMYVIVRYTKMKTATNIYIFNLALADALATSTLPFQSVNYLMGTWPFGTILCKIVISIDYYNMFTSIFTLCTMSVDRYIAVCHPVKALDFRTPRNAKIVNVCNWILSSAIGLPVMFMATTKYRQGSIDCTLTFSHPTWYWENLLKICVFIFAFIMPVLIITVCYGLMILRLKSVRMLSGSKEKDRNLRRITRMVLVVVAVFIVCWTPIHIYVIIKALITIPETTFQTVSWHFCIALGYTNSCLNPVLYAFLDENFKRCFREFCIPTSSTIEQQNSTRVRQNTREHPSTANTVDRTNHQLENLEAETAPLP

Glutamate NMDA receptor = assay: Inhibitory activity against [3H]TCP binding to Phencyclidine receptor in rat cortex
Rattus norvegicus [9] = species on record: Rattus norvegicus; assay: Inhibitory activity against [3H]dopamine uptake in rat striatum; assay type: functional
Rattus norvegicus [10] = species on record: Rattus norvegicus; assay: Inhibitory activity against [3H]norepinephrine (NE) uptake in rat whole brain; assay type: functional
Rattus norvegicus [11] = species on record: Rattus norvegicus; assay: Inhibitory activity against [3H]5-HT uptake in rat whole brain; assay type: functional
[12] = target: Voltage-dependent L-type calcium channel subunit alpha-1C (Rattus norvegicus, UniProt P22002); assay: Inhibition of [3H]nitrendipine binding to [Ca2+] channel of rat heart
Sequence of Voltage-dependent L-type calcium channel subunit alpha-1C (P22002 whole entry): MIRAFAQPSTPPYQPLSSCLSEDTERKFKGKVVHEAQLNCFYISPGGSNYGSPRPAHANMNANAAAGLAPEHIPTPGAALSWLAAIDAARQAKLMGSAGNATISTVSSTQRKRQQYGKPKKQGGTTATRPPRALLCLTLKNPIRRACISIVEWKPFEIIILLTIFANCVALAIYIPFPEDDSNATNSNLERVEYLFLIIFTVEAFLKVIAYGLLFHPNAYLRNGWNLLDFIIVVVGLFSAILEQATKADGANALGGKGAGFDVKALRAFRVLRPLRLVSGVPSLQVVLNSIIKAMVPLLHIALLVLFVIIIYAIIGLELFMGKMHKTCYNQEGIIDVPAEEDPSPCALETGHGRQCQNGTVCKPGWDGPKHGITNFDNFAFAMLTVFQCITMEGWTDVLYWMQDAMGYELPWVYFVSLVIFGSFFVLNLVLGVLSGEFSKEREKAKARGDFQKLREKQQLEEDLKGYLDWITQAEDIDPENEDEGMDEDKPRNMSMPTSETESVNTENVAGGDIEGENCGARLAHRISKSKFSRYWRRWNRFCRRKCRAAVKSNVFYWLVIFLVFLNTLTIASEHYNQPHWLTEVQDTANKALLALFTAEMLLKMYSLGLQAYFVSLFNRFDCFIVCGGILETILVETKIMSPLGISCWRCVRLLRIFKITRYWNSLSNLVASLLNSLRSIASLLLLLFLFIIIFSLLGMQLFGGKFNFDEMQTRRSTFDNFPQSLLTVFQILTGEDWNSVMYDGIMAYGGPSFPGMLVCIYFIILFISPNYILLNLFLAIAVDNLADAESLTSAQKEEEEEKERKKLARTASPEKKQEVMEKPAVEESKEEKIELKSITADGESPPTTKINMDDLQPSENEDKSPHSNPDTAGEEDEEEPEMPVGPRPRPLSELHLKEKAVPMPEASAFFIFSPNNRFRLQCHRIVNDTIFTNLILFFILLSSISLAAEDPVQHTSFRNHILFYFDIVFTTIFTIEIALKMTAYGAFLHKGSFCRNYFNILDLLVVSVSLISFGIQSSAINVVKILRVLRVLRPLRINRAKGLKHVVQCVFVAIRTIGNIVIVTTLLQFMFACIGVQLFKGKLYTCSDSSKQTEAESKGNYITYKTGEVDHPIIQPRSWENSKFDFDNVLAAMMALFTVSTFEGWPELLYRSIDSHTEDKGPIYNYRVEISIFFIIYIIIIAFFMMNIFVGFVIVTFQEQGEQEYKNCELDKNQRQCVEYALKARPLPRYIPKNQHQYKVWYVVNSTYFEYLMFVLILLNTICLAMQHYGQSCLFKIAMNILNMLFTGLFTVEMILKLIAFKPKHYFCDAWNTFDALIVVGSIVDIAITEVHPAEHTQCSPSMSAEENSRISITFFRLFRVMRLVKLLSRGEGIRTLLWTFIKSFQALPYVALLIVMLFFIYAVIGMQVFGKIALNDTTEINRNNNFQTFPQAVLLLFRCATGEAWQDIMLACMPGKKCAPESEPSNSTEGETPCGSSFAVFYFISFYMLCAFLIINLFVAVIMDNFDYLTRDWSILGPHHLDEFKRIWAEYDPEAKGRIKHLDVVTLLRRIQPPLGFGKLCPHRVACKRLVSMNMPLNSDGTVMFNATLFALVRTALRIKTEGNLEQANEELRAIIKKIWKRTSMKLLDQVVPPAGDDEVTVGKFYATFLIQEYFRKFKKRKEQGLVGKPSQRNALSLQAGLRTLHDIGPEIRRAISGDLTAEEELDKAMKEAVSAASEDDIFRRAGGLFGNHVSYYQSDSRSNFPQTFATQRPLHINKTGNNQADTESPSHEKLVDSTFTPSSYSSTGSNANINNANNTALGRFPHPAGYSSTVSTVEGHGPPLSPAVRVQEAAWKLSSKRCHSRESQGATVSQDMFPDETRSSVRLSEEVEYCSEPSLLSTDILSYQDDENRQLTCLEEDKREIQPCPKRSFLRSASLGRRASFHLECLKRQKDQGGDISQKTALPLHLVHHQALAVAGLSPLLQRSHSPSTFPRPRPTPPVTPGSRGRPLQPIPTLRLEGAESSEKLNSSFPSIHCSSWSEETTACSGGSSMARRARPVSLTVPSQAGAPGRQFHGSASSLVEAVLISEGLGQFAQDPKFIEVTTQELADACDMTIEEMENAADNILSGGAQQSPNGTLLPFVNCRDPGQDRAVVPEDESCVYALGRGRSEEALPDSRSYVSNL

D(2) dopamine receptor = D(2) dopamine receptor (Rattus norvegicus, UniProt P61169); assay: Inhibitory activity against [3H]spiroperidol bingind to Dopamine receptor D2 in rat striatum; assay type: tissue-based
Sequence of D(2) dopamine receptor (P61169 whole entry): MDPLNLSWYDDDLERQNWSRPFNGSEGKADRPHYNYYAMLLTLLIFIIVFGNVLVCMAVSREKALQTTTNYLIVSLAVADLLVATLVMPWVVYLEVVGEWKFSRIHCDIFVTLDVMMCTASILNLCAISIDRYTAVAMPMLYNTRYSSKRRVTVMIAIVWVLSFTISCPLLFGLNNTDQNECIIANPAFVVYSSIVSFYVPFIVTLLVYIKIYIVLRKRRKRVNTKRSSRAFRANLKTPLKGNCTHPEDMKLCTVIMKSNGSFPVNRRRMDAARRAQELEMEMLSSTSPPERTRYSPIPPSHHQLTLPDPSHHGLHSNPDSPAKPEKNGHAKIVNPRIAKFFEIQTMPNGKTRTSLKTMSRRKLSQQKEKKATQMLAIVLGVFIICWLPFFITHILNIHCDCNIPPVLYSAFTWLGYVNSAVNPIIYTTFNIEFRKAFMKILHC

Mus musculus [13] = species on record: Mus musculus; settings: dose 0.63 mg/kg; route subcutaneous
Description: Antagonistic activity against Scopolamine induced behavioral deficits in mice at dose 0.63 mg/kg sc

`CCCN(c1ccncc1)n1ccc2ccccc21` [BESIPIRDINE] gave an IC50 [1] of under 20 µM, an IC50 [2] of over 20 µM and an IC50 [3] of over 20 µM. The IC50 (Acetylcholinesterase) was over 100 µM, the IC50 (D(1A) dopamine receptor) was over 20 µM and the Antagonism (Mus musculus [4]) was 5. The IC50 [5] was 0.46 µM, the IC50 [6] was 1 µM and the IC50 [7] was over 20 µM. The IC50 [8] was 1.3 µM, the IC50 (Mu-type opioid receptor) was over 1 µM and the IC50 (Glutamate NMDA receptor) was over 20 µM. It also gave an IC50 (Rattus norvegicus [9]) of 0.41 µM, an IC50 (Rattus norvegicus [10]) of 0.43 µM and an IC50 (Rattus norvegicus [11]) of 2.6 µM. The IC50 [12] was over 100 µM, the IC50 (D(2) dopamine receptor) was over 20 µM and the Response (Mus musculus [13]) was 40%.

Source: ChEMBL document CHEMBL1129670, “Synthesis and structure-activity relationships of N-propyl-N-(4-pyridinyl)-1H-indol-1-amine (besipirdine) and related analogs as potential therapeutic agents for Alzheimer's disease” (J Med Chem, 1996)
